Reference: ChEMBL document CHEMBL3997771 (Eur J Med Chem, 2017)
Active and inactive are the calls of the source. No cut-off for these calls is given here.

How the values were obtained:
A549 [1] = assay: Cytotoxicity against human A549 cells assessed as growth inhibition after 72 hrs by MTT assay; type: functional, cell-based; details: A549, 72 h
HEK293 = assay: Cytotoxicity against HEK293 cells assessed as growth inhibition after 72 hrs by MTT assay; type: cell-based; details: Homo sapiens, HEK293, 72 h
[2] = Inhibition of lamb brain tubulin self assembly assessed as decrease in microtubule formation after 10 mins by turbidimetry/spectrometry; set-up: species or system Ovis aries
[3] = Selectivity index, ratio of IC50 for HEK293 cells to IC50 for human A549 cells; type: functional
HT-29 = assay: Cytotoxicity against human HT-29 cells assessed as growth inhibition after 72 hrs by MTT assay; type: functional, cell-based; details: HT-29, 72 h
Ovis aries [4] = organism: Ovis aries; assay: Induction of abnormal lamb brain tubulin polymer formation at 50 uM after 10 mins by turbidimetry
Ovis aries [5] = organism: Ovis aries; assay: Binding affinity to lamb brain tubulin after 15 mins by fluorimetric titration method
MCF7 = assay: Cytotoxicity against human MCF7 cells assessed as growth inhibition after 72 hrs by MTT assay; type: functional, cell-based; details: MCF7, 72 h
A549 [6] = assay: Induction of microtubule depolymerization in human A549 cells at 100 nM after 4 hrs by immunofluorescence microscopic method; type: cell-based
[7] = Selectivity index, ratio of IC50 for HEK293 cells to IC50 for human MCF7 cells; type: functional
Ovis aries [8] = organism: Ovis aries; assay: Inhibition of lamb brain tubulin self assembly assessed as decrease in microtubule formation at 10 uM after 10 mins by turbidimetry/spectrometry
[9] = Selectivity index, ratio of IC50 for HEK293 cells to IC50 for human HT-29 cells; type: functional
Ovis aries [10] = organism: Ovis aries; assay: Induction of abnormal lamb brain tubulin polymer formation at 10 uM after 10 mins by turbidimetry
Ovis aries [11] = organism: Ovis aries; assay: Induction of abnormal lamb brain tubulin polymer formation at 50 uM by uranyl acetate staining-based transmission electron microscopy
A549 [12] = assay: Cell cycle arrest in human A549 cells assessed as accumulation at G2/M phase at IC50 after 24 hrs by propidium iodide staining-based flow cytometric method; type: functional
Ovis aries [13] = organism: Ovis aries; assay: Inhibition of lamb brain tubulin self assembly assessed as decrease in microtubule formation at 0.1 uM by uranyl acetate staining-based transmission electron microscopy
Ovis aries [14] = organism: Ovis aries; assay: Binding affinity to lamb brain tubulin-colchicine complex at 20 uM by fluorimetric titration method
Ovis aries [15] = organism: Ovis aries; assay: Binding affinity to lamb brain tubulin at 10 uM by fluorimetric titration method

Structure (SMILES)	IC50 (A549 [1])	IC50 (HEK293)	IC50 [2]	Ratio IC50 [3]	IC50 (HT-29)	Activity (Ovis aries [4])	Kapp (Ovis aries [5])	IC50 (MCF7)	Activity (A549 [6])	Ratio IC50 [7]	inhibition (Ovis aries [8])	Ratio IC50 [9]	Activity (Ovis aries [10])	Activity (Ovis aries [11])	Activity (A549 [12])	inhibition (Ovis aries [13])	Activity (Ovis aries [14])	Activity (Ovis aries [15])
CCCCCC(=O)N[C@H]1CCc2cc(OC)c(OC)c(OC)c2-c2ccc(OC)c(=O)cc21	18 nM	7.1 nM	2060 nM	0.39	3.37 nM	Active	6.4 ×10⁴ /M	7.02 nM	Active	1	Active	2.1						
CCCCCCCCCCCCCCCC(=O)N[C@H]1CCc2cc(OC)c(OC)c(OC)c2-c2ccc(OC)c(=O)cc21		244 nM			184 nM			720 nM		0.3		1.3						
CCCC(=O)N[C@H]1CCc2cc(OC)c(OC)c(OC)c2-c2ccc(OC)c(=O)cc21		13.5 nM			10 nM			13 nM		1		1.4						
CCCCCCCCCCCC(=O)N[C@H]1CCc2cc(OC)c(OC)c(OC)c2-c2ccc(OC)c(=O)cc21	71.9 nM	0.23 nM	1210 nM	<0.1	0.27 nM	Active	19 ×10⁴ /M	0.53 nM		0.4		0.9	Active	Active				
CCCCCCCCCCCCC(=O)N[C@H]1CCc2cc(OC)c(OC)c(OC)c2-c2ccc(OC)c(=O)cc21		1.5 nM			7 nM			6.8 nM		0.2		0.2						
CCCCCCCCCCC(=O)N[C@H]1CCc2cc(OC)c(OC)c(OC)c2-c2ccc(OC)c(=O)cc21	62 nM	0.17 nM	790 nM	<0.1	0.041 nM	Active	18.4 ×10⁴ /M	1.77 nM		0.1		4.2	Active		41%			
CCCCCCCC(=O)N[C@H]1CCc2cc(OC)c(OC)c(OC)c2-c2ccc(OC)c(=O)cc21	133 nM	18.9 nM	1080 nM	0.14	1.69 nM	Active	5.2 ×10⁴ /M	23 nM		0.8	80%	11.2		Active				
COc1cc2c(c(OC)c1OC)-c1ccc(OC)c(=O)cc1[C@@H](NC(C)=O)CC2 [COLCHICINE]	14 nM								Active						8%			
CCCCCCCCCCCCCCCCCC(=O)N[C@H]1CCc2cc(OC)c(OC)c(OC)c2-c2ccc(OC)c(=O)cc21		766 nM			1010 nM			120 nM		6.4		0.8						
CCCCCCCCCCCCCC(=O)N[C@H]1CCc2cc(OC)c(OC)c(OC)c2-c2ccc(OC)c(=O)cc21		46 nM			36 nM			20 nM		2.3		1.3						
CCCCCCCCCC(=O)N[C@H]1CCc2cc(OC)c(OC)c(OC)c2-c2ccc(OC)c(=O)cc21	25 nM	0.242 nM	700 nM	<0.1	0.143 nM	Active	17.9 ×10⁴ /M	29 nM	Active	<0.1		1.7	Active			Active	inactive	Active
